# Assays:
# [1] = test system: DU-145; test: NCI-60 one-dose screen, DU-145; format: cell-based; conditions: Homo sapiens; DU-145, prostate cancer; single dose 10 μM; read-out: Growth inhibition %
# Procedure: (§1) Anti-proliferative effects of the counterparts 4a–g and 5a–g were screened against 60 human cancer cell lines, following the Developmental Therapeutics Program protocol, National Cancer Institute[35].
# (§2) The anti-tumour activity of the fourteen synthesised congeners was investigated at the NCI against a panel of 60 cancer cell lines (NCI-60 Cell One-Dose Screen). The tested dibenzo[b,f]azepine derivatives were screened at a single dose level (10 μM), Table 1.
# [2] = test system: K-562; test: NCI-60 one-dose screen, K-562; format: cell-based; conditions: Homo sapiens, K562; K-562, leukaemia; single dose 10 μM; read-out: Growth inhibition %
# Procedure: as §1, §2
# [3] = test system: UO-31; test: NCI-60 one-dose screen, UO-31; format: cell-based; conditions: Homo sapiens; UO-31, renal cancer; single dose 10 μM; read-out: Growth inhibition %
# Procedure: as §1, §2
# [4] = test system: HS 578 T; test: NCI-60 one-dose screen, HS 578 T; format: cell-based; conditions: Homo sapiens, breast cancer, single dose 10 μM, read-out: Growth inhibition %
# Procedure: as §1, §2
# [5] = test system: NCI-H23; test: NCI-60 one-dose screen, NCI-H23; format: cell-based; conditions: Homo sapiens; NCI-H23, non-small cell lung cancer; single dose 10 μM; read-out: Growth inhibition %
# Procedure: as §1, §2
# [6] = test system: SK-MEL-2; test: NCI-60 one-dose screen, SK-MEL-2; format: cell-based; conditions: Homo sapiens; SK-MEL-2, melanoma; single dose 10 μM; read-out: Growth inhibition %
# Procedure: as §1, §2
# [7] = test system: RXF 393; test: NCI-60 one-dose screen, RXF 393; format: cell-based; conditions: Homo sapiens; RXF 393, renal cancer; single dose 10 μM; read-out: Growth inhibition %
# Procedure: as §1, §2
# [8] = test system: HCT-15; test: NCI-60 one-dose screen, HCT-15; format: cell-based; conditions: Homo sapiens; HCT-15, colon cancer; single dose 10 μM; read-out: Growth inhibition %
# Procedure: as §1, §2
# [9] = test system: CAKI-1; test: NCI-60 one-dose screen, CAKI-1; format: cell-based; conditions: Homo sapiens; CAKI-1, renal cancer; single dose 10 μM; read-out: Growth inhibition %
# Procedure: as §1, §2
# [10] = test system: NCI-H522; test: NCI-60 one-dose screen, NCI-H522; format: cell-based; conditions: Homo sapiens; NCI-H522, non-small cell lung cancer; single dose 10 μM; read-out: Growth inhibition %
# Procedure: as §1, §2
# [11] = test system: 786-0; test: NCI-60 one-dose screen, 786-0; format: cell-based; conditions: Homo sapiens; 786-0, renal cancer; single dose 10 μM; read-out: Growth inhibition %
# Procedure: as §1, §2
# [12] = test system: UACC-62; test: NCI-60 one-dose screen, UACC-62; format: cell-based; conditions: Homo sapiens; UACC-62, melanoma; single dose 10 μM; read-out: Growth inhibition %
# Procedure: as §1, §2
# [13] = test system: SK-MEL-5; test: NCI-60 one-dose screen, SK-MEL-5; format: cell-based; conditions: Homo sapiens; SK-MEL-5, melanoma; single dose 10 μM; read-out: Growth inhibition %
# Procedure: as §1, §2
# [14] = test system: OVCAR-8; test: NCI-60 one-dose screen, OVCAR-8; format: cell-based; conditions: Homo sapiens; OVCAR-8, ovarian cancer; single dose 10 μM; read-out: Growth inhibition %
# Procedure: as §1, §2
# [15] = test system: ACHN; test: NCI-60 one-dose screen, ACHN; format: cell-based; conditions: Homo sapiens, renal cancer, single dose 10 μM, read-out: Growth inhibition %
# Procedure: as §1, §2
# [16] = test system: HCC-2998; test: NCI-60 one-dose screen, HCC-2998; format: cell-based; conditions: Homo sapiens; HCC-2998, colon cancer; single dose 10 μM; read-out: Growth inhibition %
# Procedure: as §1, §2
# [17] = test system: TK-10; test: NCI-60 one-dose screen, TK-10; format: cell-based; conditions: Homo sapiens; TK-10, renal cancer; single dose 10 μM; read-out: Growth inhibition %
# Procedure: as §1, §2
# [18] = test system: HOP-62; test: NCI-60 one-dose screen, HOP-62; format: cell-based; conditions: Homo sapiens; HOP-62, non-small cell lung cancer; single dose 10 μM; read-out: Growth inhibition %
# Procedure: as §1, §2
# [19] = test system: OVCAR-4; test: NCI-60 one-dose screen, OVCAR-4; format: cell-based; conditions: Homo sapiens; OVCAR-4, ovarian cancer; single dose 10 μM; read-out: Growth inhibition %
# Procedure: as §1, §2
# [20] = test system: CCRF-CEM; test: NCI-60 one-dose screen, CCRF-CEM; format: cell-based; conditions: Homo sapiens, leukaemia, single dose 10 μM, read-out: Growth inhibition %
# Procedure: as §1, §2
# [21] = test system: SNB-19; test: NCI-60 one-dose screen, SNB-19; format: cell-based; conditions: Homo sapiens; SNB-19, CNS cancer; single dose 10 μM; read-out: Growth inhibition %
# Procedure: as §1, §2
# [22] = test system: IGROV1; test: NCI-60 one-dose screen, IGROV1; format: cell-based; conditions: Homo sapiens, IGROV-1; IGROV1, ovarian cancer; single dose 10 μM; read-out: Growth inhibition %
# Procedure: as §1, §2
# [23] = test system: OVCAR-5; test: NCI-60 one-dose screen, OVCAR-5; format: cell-based; conditions: Homo sapiens; OVCAR-5, ovarian cancer; single dose 10 μM; read-out: Growth inhibition %
# Procedure: as §1, §2
# [24] = test system: SK-OV-3; test: NCI-60 one-dose screen, SK-OV-3; format: cell-based; conditions: Homo sapiens; SK-OV-3, ovarian cancer; single dose 10 μM; read-out: Growth inhibition %
# Procedure: as §1, §2
# [25] = test system: U251; test: NCI-60 one-dose screen, U251; format: cell-based; conditions: Homo sapiens, U-251; U251, CNS cancer; single dose 10 μM; read-out: Growth inhibition %
# Procedure: as §1, §2
# [26] = test system: MALME-3M; test: NCI-60 one-dose screen, MALME-3M; format: cell-based; conditions: Homo sapiens, melanoma, single dose 10 μM, read-out: Growth inhibition %
# Procedure: as §1, §2
# [27] = test system: NCI-H322M; test: NCI-60 one-dose screen, NCI-H322M; format: cell-based; conditions: Homo sapiens, non-small cell lung cancer, single dose 10 μM, read-out: Growth inhibition %
# Procedure: as §1, §2
# [28] = test system: NCI-H226; test: NCI-60 one-dose screen, NCI-H226; format: cell-based; conditions: Homo sapiens; NCI-H226, non-small cell lung cancer; single dose 10 μM; read-out: Growth inhibition %
# Procedure: as §1, §2
# [29] = test system: NCI/ADR-RES; test: NCI-60 one-dose screen, NCI/ADR-RES; format: cell-based; conditions: Homo sapiens, ovarian cancer, single dose 10 μM, read-out: Growth inhibition %
# Procedure: as §1, §2
# [30] = test system: MDA-MB-435; test: NCI-60 one-dose screen, MDA-MB-435; format: cell-based; conditions: Homo sapiens; MDA-MB-435, melanoma; single dose 10 μM; read-out: Growth inhibition %
# Procedure: as §1, §2
# [31] = test system: COLO 205; test: NCI-60 one-dose screen, COLO 205; format: cell-based; conditions: Homo sapiens; COLO 205, colon cancer; single dose 10 μM; read-out: Growth inhibition %
# Procedure: as §1, §2
# [32] = test system: MDA-MB-231-ATCC; test: NCI-60 one-dose screen, MDA-MB-231-ATCC; format: cell-based; conditions: Homo sapiens, breast cancer, single dose 10 μM, read-out: Growth inhibition %
# Procedure: as §1, §2
# [33] = test system: UACC-257; test: NCI-60 one-dose screen, UACC-257; format: cell-based; conditions: Homo sapiens; UACC-257, melanoma; single dose 10 μM; read-out: Growth inhibition %
# Procedure: as §1, §2
Structure (SMILES),inhibition at 10 µM [1] [%],inhibition at 10 µM [2] [%],inhibition at 10 µM [3] [%],melting point [°C],inhibition at 10 µM [4] [%],inhibition at 10 µM [5] [%],inhibition at 10 µM [6] [%],inhibition at 10 µM [7] [%],inhibition at 10 µM [8] [%],inhibition at 10 µM [9] [%],inhibition at 10 µM [10] [%],inhibition at 10 µM [11] [%],inhibition at 10 µM [12] [%],inhibition at 10 µM [13] [%],inhibition at 10 µM [14] [%],inhibition at 10 µM [15] [%],inhibition at 10 µM [16] [%],inhibition at 10 µM [17] [%],inhibition at 10 µM [18] [%],inhibition at 10 µM [19] [%],other results
"O=C(NNC(=O)N1c2ccccc2C=Cc2ccccc21)c1ccc2ccccc2c1 [Compound 4f, N′-(2-Naphthoyl)-5H-dibenzo[b,f]azepine-5-carbohydrazide]",< 10,12.8,12,243 to 245,< 10,< 10,< 10,< 10,< 10,< 10,14.1,< 10,18.9,< 10,< 10,< 10,< 10,< 10,< 10,< 10,inhibition at 10 µM [20]: < 10%; inhibition at 10 µM [21]: < 10%; inhibition at 10 µM [22]: < 10%; inhibition at 10 µM [23]: < 10%; inhibition at 10 µM [24]: < 10%; inhibition at 10 µM [25]: < 10%; inhibition at 10 µM [26]: < 10%; inhibition at 10 µM [27]: < 10%; inhibition at 10 µM [28]: < 10%; inhibition at 10 µM [29]: < 10%; inhibition at 10 µM [30]: < 10%; inhibition at 10 µM [31]: < 10%; inhibition at 10 µM [32]: < 10%; inhibition at 10 µM [33]: < 10%
"Clc1ccc(-c2nnc(N3c4ccccc4C=Cc4ccccc43)o2)cc1 [Compound 5c, 2-(4-Chlorophenyl)-5-(5H-dibenzo[b,f]azepin-5-yl)-1,3,4-oxadiazole]",< 10,54,33.8,174 to 176,< 10,< 10,< 10,17.9,63.5,28.5,22.2,< 10,31.3,48,24,15.5,< 10,< 10,15.4,22.1,inhibition at 10 µM [20]: 30.4%; inhibition at 10 µM [21]: 11.2%; inhibition at 10 µM [22]: 19.2%; inhibition at 10 µM [23]: < 10%; inhibition at 10 µM [24]: < 10%; inhibition at 10 µM [25]: 42.6%; inhibition at 10 µM [26]: < 10%; inhibition at 10 µM [27]: 10.5%; inhibition at 10 µM [28]: 27.5%; inhibition at 10 µM [29]: 14.5%; inhibition at 10 µM [30]: < 10%; inhibition at 10 µM [31]: < 10%; inhibition at 10 µM [32]: 19.8%; inhibition at 10 µM [33]: < 10%
"Brc1ccc(-c2nnc(N3c4ccccc4C=Cc4ccccc43)o2)cc1 [Compound 5b, 2-(4-Bromophenyl)-5-(5H-dibenzo[b,f]azepin-5-yl)-1,3,4-oxadiazole]",< 10,54.5,33.5,185 to 187,14.4,< 10,< 10,24.9,66.5,31.9,26.3,11.3,32.2,53.2,28.6,24.8,< 10,< 10,22.7,19.6,inhibition at 10 µM [20]: 37.3%; inhibition at 10 µM [21]: 15.6%; inhibition at 10 µM [22]: 21.6%; inhibition at 10 µM [23]: < 10%; inhibition at 10 µM [24]: < 10%; inhibition at 10 µM [25]: 47%; inhibition at 10 µM [26]: < 10%; inhibition at 10 µM [27]: < 10%; inhibition at 10 µM [28]: 28.3%; inhibition at 10 µM [29]: 23.4%; inhibition at 10 µM [30]: < 10%; inhibition at 10 µM [31]: 15.4%; inhibition at 10 µM [32]: 22.3%; inhibition at 10 µM [33]: < 10%
